We go through 40 compounds from US7598245B2 (Vertex Pharmaceuticals Incorporated, priority 2003, dated 2009).

One assay has as its target T1, c-KIT (Homo sapiens, UniProt P10721).
T1 construct: 0.02% BSA and 25 nM c-KIT
The assay is described as follows: Inhibition of c-KIT, radiometric filter-binding assay. Format: biochemical. The note with it: 700 μM ATP, pE4Y substrate. As for the experimental part: Compounds are screened for their ability to inhibit c-KIT activity using a radiometric filter-binding assay. This assay monitors the ^33P incorporation into a substrate poly(Glu, Tyr) 4:1 (pE4Y). Reactions are carried out in a solution containing 100 mM HEPES (pH 7.5), 10 mM MgCl2, 25 mM NaCl, 1 mM DTT, 0.01% BSA and 2.5% DMSO. Final substrate concentrations in the assay were 700 μM ATP and 0.5 mg/mL pE4Y (both from Sigma Chemicals, St Louis, Mo.). The final concentration of compounds is generally between 0.01 and 5 μM. Typically, a 12-point titration is conducted by preparing serial dilutions from 10 mM DMSO stock of test compound. Reactions were carried out at room temperature.
Two assay solutions are prepared. Solution 1 contains 100 mM HEPES (pH 7.5), 10 mM MgCl2, 25 mM NaCl, 1 mg/ml pE4Y and 1.4 mM ATP (containing 0.5 μCi of [γ-^33P]ATP for each reaction). Solution 2 contains 100 mM HEPES (pH 7.5), 10 mM MgCl2, 25 mM NaCl, 2 mM DTT, 0.02% BSA and 25 nM c-KIT. The assay is run on a 96 well plate by mixing 33 μL of Solution1 and 1.65 μL of the test compounds. The reaction is initiated with 33 μL of Solution2. After incubation for 20 minutes at room temperature, the reaction was stopped with 50 μL of 10% TCA containing 0.2 mM of ATP. All of the reaction volume is then transferred to a filter plate and washed with 5% TCA by a Harvester9600 from TOMTEC (Hamden, Conn.). The amount of ^33P incorporation into pE4y is analyzed by a Packard TopCount Microplate Scintillation Counter (Meriden, Conn.). The data is fitted using Prism software to get an IC50 or Ki.

Another assay deals with T2, JAK-3 (Homo sapiens, UniProt P52333).
T2 sequence (P52333 1-1124): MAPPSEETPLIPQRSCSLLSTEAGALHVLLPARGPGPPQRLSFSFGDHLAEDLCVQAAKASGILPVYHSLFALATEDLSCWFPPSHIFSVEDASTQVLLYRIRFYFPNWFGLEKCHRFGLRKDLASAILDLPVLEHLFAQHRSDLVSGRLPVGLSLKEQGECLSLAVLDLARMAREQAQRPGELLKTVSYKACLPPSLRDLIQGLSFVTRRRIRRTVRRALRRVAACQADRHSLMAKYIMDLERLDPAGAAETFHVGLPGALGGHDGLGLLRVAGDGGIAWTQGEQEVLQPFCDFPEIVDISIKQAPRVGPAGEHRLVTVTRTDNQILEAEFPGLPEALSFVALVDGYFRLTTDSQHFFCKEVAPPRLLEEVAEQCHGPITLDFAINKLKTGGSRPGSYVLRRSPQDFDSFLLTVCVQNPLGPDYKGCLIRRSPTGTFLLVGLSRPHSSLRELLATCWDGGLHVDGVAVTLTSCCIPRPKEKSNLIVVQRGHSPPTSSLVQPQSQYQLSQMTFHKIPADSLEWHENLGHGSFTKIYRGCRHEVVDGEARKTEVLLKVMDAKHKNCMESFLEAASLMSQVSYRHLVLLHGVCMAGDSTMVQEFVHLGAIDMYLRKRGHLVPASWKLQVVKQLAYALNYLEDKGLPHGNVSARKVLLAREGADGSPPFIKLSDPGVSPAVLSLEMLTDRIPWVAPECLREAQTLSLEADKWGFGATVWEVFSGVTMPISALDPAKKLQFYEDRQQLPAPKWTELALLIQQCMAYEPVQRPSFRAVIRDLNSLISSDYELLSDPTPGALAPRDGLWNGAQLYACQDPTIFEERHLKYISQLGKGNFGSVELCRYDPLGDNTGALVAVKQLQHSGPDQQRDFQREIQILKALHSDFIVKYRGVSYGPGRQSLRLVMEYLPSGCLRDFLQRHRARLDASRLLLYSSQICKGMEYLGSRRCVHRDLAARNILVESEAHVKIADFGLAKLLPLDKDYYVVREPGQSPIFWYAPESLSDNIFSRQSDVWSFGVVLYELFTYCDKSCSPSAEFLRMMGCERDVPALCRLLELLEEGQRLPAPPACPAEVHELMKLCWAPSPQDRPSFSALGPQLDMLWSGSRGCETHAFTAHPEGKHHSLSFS
The assay is described as follows: JAK3 inhibition assay (ELISA, Poly (Glu, Ala, Tyr) coated plates). Format: biochemical. The note with it: 2 μM ATP. As for the experimental part: Compound inhibition of JAK was assayed by the method described by G. R. Brown, et al, Bioorg. Med. Chem. Lett. 2000, vol. 10, pp 575-579 in the following manner. Into Maxisorb plates, previously coated at 4° C. with Poly (Glu, Ala, Tyr) 6:3:1 then washed with phosphate buffered saline 0.05% and Tween-(PBST), was added 2 μM ATP, 5 mM MgCl2, and a solution of compound in DMSO. The reaction was started with JAK enzyme and the plates incubated for 60 minutes at 30° C. The plates were then washed with PBST, 100 μL HRP-Conjugated 4G10 antibody was added, and the plate incubated for 90 minutes at 30° C. The plate was again washed with PBST, 100 μL TMB solution is added, and the plates were incubated for another 30 minutes at 30° C. Sulfuric acid (100 μL of 1M) was added to stop the reaction and the plate is read at 450 nm to obtain the optical densities for analysis to determine Ki values.
Background: In an ELISA, binding on a coated surface is turned into a signal by an enzyme label.

T1 sequence (P10721 26-976): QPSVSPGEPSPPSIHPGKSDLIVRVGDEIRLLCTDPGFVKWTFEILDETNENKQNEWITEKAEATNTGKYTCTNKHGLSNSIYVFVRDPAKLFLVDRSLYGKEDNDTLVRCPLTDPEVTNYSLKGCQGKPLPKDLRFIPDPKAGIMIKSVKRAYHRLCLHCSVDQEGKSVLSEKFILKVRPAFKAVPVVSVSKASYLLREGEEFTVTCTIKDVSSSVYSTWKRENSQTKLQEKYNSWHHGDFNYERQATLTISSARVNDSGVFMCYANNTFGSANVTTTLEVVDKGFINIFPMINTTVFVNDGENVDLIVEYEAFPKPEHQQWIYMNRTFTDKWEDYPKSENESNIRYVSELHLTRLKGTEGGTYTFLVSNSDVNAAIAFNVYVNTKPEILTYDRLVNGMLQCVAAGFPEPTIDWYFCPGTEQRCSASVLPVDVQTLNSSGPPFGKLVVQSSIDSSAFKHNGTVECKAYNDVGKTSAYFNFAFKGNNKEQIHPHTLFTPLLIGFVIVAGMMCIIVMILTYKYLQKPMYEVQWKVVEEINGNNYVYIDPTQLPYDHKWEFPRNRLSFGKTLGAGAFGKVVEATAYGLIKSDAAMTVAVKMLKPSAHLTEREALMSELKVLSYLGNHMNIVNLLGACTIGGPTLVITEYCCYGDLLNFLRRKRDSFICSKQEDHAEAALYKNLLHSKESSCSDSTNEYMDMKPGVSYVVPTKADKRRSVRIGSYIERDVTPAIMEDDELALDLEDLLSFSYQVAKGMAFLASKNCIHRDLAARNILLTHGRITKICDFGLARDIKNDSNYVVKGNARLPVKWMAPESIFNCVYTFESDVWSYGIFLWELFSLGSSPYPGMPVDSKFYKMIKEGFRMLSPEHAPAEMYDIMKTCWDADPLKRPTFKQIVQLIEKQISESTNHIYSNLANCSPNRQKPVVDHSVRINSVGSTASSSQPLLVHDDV

Regarding `CC(=O)N1[C@H](C)CN(c2cc(-n3cnc(Nc4ccc(NC(=O)c5cccs5)cc4)n3)ccn2)C[C@@H]1C` [Compound I-80], the figures for the Ki at c-KIT and on JAK-3 were under 0.05 µM and 0.01 to 1 µM, respectively.

Turning to `COC(=O)Nc1ccc(Nc2ncn(-c3ccnc(N4C[C@@H](C)N(C(C)=O)[C@@H](C)C4)c3)n2)cc1` [Compound I-78], the results for the inhibitory constant (Ki) on c-KIT and on JAK-3 were 0.05 to 0.5 µM and 0.01 to 1 µM, respectively.

Take `CC(C)CCN(C)c1cc(-n2cnc(Nc3ccccc3)n2)ccn1` [Compound I-62, methyl-(3-methyl-butyl)-[4-(3-phenylamino-[1,2,4]triazol-1-yl)-pyridin-2-yl]-amine]: the Ki – broadly, the dissociation constant of the complex between target and ligand, obtained from inhibition or displacement – on JAK-3 was 0.01 to 1 µM.

Turning to `CC(=O)N1CCCN(c2cc(-n3cnc(Nc4ccccc4)n3)ccn2)CC1` [Compound I-66], the inhibition constant Ki on c-KIT is 0.05 to 0.5 µM; at JAK-3 it was 0.01 to 1 µM.

As to `CC(=O)N1[C@H](C)CN(c2cc(-n3cnc(Nc4ccc(N)cc4)n3)ccn2)C[C@@H]1C` [Compound I-82], the inhibition constant Ki at c-KIT is 0.05 to 0.5 µM; at JAK-3, under 0.01 µM.

Take `CCCNC(=O)Nc1ccc(Nc2ncn(-c3ccnc(N4C[C@@H](C)N(C(C)=O)[C@@H](C)C4)c3)n2)cc1` [Compound I-99]: the inhibition constant Ki on c-KIT is 0.05 to 0.5 µM; at JAK-3, 0.01 to 1 µM.

For `CCNC(=O)Nc1ccc(Nc2ncn(-c3ccnc(N4C[C@@H](C)N(C(C)=O)[C@@H](C)C4)c3)n2)cc1` [Compound I-98, 1-(4-{1-[2-(4-Acetyl-3,5-dimethyl-piperazin-1-yl)-pyridin-4-yl]-1H-[1,2,4]triazol-3-ylamino}-phenyl)-3-ethyl-urea], the Ki is 0.05 to 0.5 µM at c-KIT and under 0.01 µM at JAK-3.

Consider `c1ccc(Nc2ncn(-c3ccnc(N4CCCCCC4)c3)n2)cc1` [Compound I-73], for which the Ki is 0.05 to 0.5 µM on c-KIT and under 0.01 µM on JAK-3.

On to `CN1CCN(c2ccc(Nc3ncn(-c4ccccc4)n3)cn2)CC1` [Compound I-135], for which the Ki at JAK-3 was over 1 µM.

As to `O=C(C1CCCO1)N1CCN(c2cc(-n3cnc(Nc4ccccc4)n3)ccn2)CC1` (stereo not shown) [Compound I-64], on JAK-3, the inhibition constant (Ki) is over 1 µM.

`CCOc1cccc(Nc2ncn(-c3ccccc3)n2)c1` [Compound I-45]: the results for the Ki at c-KIT and on JAK-3 were under 0.05 µM and over 1 µM, respectively.

Consider `CCN(CCO)c1cc(-n2cnc(Nc3ccccc3)n2)ccn1` [Compound I-54], for which the inhibition constant Ki on JAK-3 lay within 0.01 to 1 µM.

On JAK-3, `c1ccc(Nc2ncn(-c3ccnc(N4CCCCC4)c3)n2)cc1` [Compound I-49, phenyl-[1-(3,4,5,6-tetrahydro-2H-[1,2′]bipyridinyl-4′-yl)-1H-[1,2,4]triazol-3-yl]-amine] showed an inhibition constant (Ki) of 0.01 to 1 µM.

`CCOC(=O)c1ccc(Nc2ncn(-c3ccnc(N4C[C@@H](C)N(C(C)=O)[C@@H](C)C4)c3)n2)cc1` [Compound I-75]: the Ki at c-KIT was under 0.05 µM; at JAK-3, 0.01 to 1 µM.

In turn, `COCCN(C)c1cc(-n2cnc(Nc3ccccc3)n2)ccn1` [Compound I-59, (2-methoxy-ethyl)-methyl-[4-(3-phenylamino-[1,2,4]triazol-1-yl)-pyridin-2-yl]-amine] yielded an inhibition constant (Ki) at JAK-3 of 0.01 to 1 µM.

On JAK-3, `CN1C(C)(C)CC(Nc2cc(-n3cnc(Nc4ccccc4)n3)ccn2)CC1(C)C` [Compound I-61] yielded a Ki of over 1 µM.

`CC(C)CC(=O)N1CCCN(c2cc(-n3cnc(Nc4ccccc4)n3)ccn2)CC1` [Compound I-70] gave an inhibition constant Ki at JAK-3 of over 1 µM.

At JAK-3, `CCCC(=O)N1CCCN(c2cc(-n3cnc(Nc4ccccc4)n3)ccn2)CC1` [Compound I-68] had a Ki of 0.01 to 1 µM.

`CC(C)C(=O)N1CCCN(c2cc(-n3cnc(Nc4ccccc4)n3)ccn2)CC1` [Compound I-69] yielded an inhibitory constant (Ki) on JAK-3 of over 1 µM.

Take `O=c1[nH]c2ccccc2n1C1CCN(c2cc(-n3cnc(Nc4ccccc4)n3)ccn2)CC1` [Compound I-63]: the inhibition constant (Ki) on JAK-3 was over 1 µM.

For the compound `c1ccc(-n2cnc(Nc3ccc(N4CCOCC4)nc3)n2)cc1` [Compound I-134], on JAK-3, the Ki was over 1 µM.

As for `O=C(Cc1ccccc1)Nc1cc(-n2cnc(Nc3ccccc3)n2)ccn1` [Compound I-96], the Ki at JAK-3 was over 1 µM.

`OC[C@H]1CCCN(c2cc(-n3cnc(Nc4ccccc4)n3)ccn2)C1` [Compound I-65]: the Ki at JAK-3 lay in the range of 0.01 to 1 µM.

Consider `O=C(CCc1ccccc1)Nc1cc(-n2cnc(Nc3ccccc3)n2)ccn1` [Compound I-95], for which the Ki on JAK-3 is over 1 µM.

On to `COc1cc(Nc2ncn(-c3ccc(C#N)cc3)n2)cc(OC)c1OC` [Compound I-43], for which, at JAK-3, the Ki was in the range of 0.01 to 1 µM.

For `CN(Cc1cccnc1)c1cc(-n2cnc(Nc3ccccc3)n2)ccn1` [Compound I-57], the Ki on JAK-3 lay in the range of 0.01 to 1 µM.

Compound `O=C(CC1CCCC1)Nc1cc(-n2cnc(Nc3ccccc3)n2)ccn1` [Compound I-94, 2-Cyclopentyl-N-[4-(3-phenylamino-[1,2,4]triazol-1-yl)-pyridin-2-yl]-acetamide] registered an inhibitory constant (Ki) on JAK-3 of 0.01 to 1 µM.

Take `CCOC(=O)c1ccc(Nc2ncn(-c3ccnc(N4CCCN(C(C)=O)CC4)c3)n2)cc1` [Compound I-76]: the Ki on JAK-3 was in the range of 0.01 to 1 µM.

Compound `COCC(=O)N1CCCN(c2cc(-n3cnc(Nc4ccccc4)n3)ccn2)CC1` [Compound I-71] returned a Ki at JAK-3 of 0.01 to 1 µM.

Regarding `O=C(Nc1cc(-n2cnc(Nc3ccccc3)n2)ccn1)C1CCCCC1` [Compound I-93], the Ki at JAK-3 was over 1 µM.

On to `CN(C)CCCN(C)c1cc(-n2cnc(Nc3ccccc3)n2)ccn1` [Compound I-53], for which the Ki at JAK-3 is over 1 µM.

`COc1cc(Nc2ncn(-c3ccccc3)n2)cc(OC)c1OC` [Compound I-42] had a Ki at JAK-3 of 0.01 to 1 µM.

At JAK-3, `c1ccc(-n2cnc(Nc3ccc(N4CCOCC4)cc3)n2)cc1` [Compound I-106] had a Ki of 0.01 to 1 µM.

The compound `CC(C)(C)CC(=O)Nc1cc(-n2cnc(Nc3ccccc3)n2)ccn1` [Compound I-102] gave a Ki at JAK-3 of over 1 µM.

For the compound `CCC(=O)N1CCCN(c2cc(-n3cnc(Nc4ccccc4)n3)ccn2)CC1` [Compound I-67], on JAK-3, the Ki lay in the range of 0.01 to 1 µM.

Regarding `c1ccc(-n2cnc(Nc3ccnc(NCCN4CCOCC4)c3)n2)cc1` [Compound I-107], the Ki on JAK-3 is over 1 µM.

In turn, `CN(CCO)c1cc(-n2cnc(Nc3ccccc3)n2)ccn1` [Compound I-51] returned a Ki at JAK-3 of 0.01 to 1 µM.

`CCN(CC)CCNc1cc(-n2cnc(Nc3ccccc3)n2)ccn1` [Compound I-60] gave a Ki at JAK-3 of over 1 µM.

On JAK-3, `c1ccc(Nc2ncn(-c3ccnc(NC4CCCCC4)c3)n2)cc1` [Compound I-50] displayed a Ki of 0.01 to 1 µM.

`c1ccc(Nc2ncn(-c3ccnc(N4CCCCCCC4)c3)n2)cc1` [Compound I-52] showed a Ki on JAK-3 of 0.01 to 1 µM.
